# Assay results as given in patent US4416884A, “Piperazinylbenzoheterocyclic compounds” (Otsuka Pharmaceutical Co., Ltd., priority 1978, dated 1983).
# Structures can show the parent of a compound that is named as a salt. Where two headings read alike, the source gives them in different places.
# How the values were obtained:
# Experiment in all cases: antimicrobial activity, serial dilution method on agar plate
# Type in all cases: cell-based
# [1] = tested on: Streptococcus pyogenes IID S-23
# Protocol: (§1) The antimicrobial activity of the following test compounds on various test organisms listed below was determined by the serial dilution method on agar plate (Heart Infusion agar produced by Difco Co.) (see CHEMOTHERAPY 22, pp. 1126-1128 (1974)), and the minimum inhibitory concentrations (mcg/ml) obtained are shown in Table 1 below.
# (§2) A sample of each test organism was prepared so that the population of the organism was 1×10^8 cells/ml (O.D. 660 mμ=0.07 to 0.16) and 1×10^6 cells/ml (which was obtained by diluting the above 1×10^8 cells/ml preparation).
# [2] = tested on: Salmonella typhi 0-901 (NCTC 8393); conditions: Salmonella enterica
# Protocol: as §1, §2
# Shigella Sonnei EW 33 = conditions: read-out: Minimum Inhibitory Concentration
# Protocol: as §1, §2
# [3] = tested on: Serattia marcescens IFO 12648
# Protocol: as §1, §2
# Proteus rettgeri NIH 96 = conditions: Providencia rettgeri
# Protocol: as §1, §2
# [4] = tested on: Escherichia Coli NIHJ JC-2 (IFO 12734); conditions: Escherichia coli, read-out: Minimum Inhibitory Concentration
# Protocol: as §1, §2
# [5] = tested on: Pseudomonas aeruginosa E-2
# Protocol: as §1, §2
# [6] = tested on: Staphylococcus aureus FDA 209 P
# Protocol: as §1, §2
# Klebsiella pneumoniae = tested on: Klebsiella pneumoniae
# Protocol: as §1, §2
# [7] = tested on: Pseudomonas aeruginosa ATCC 10145
# Protocol: as §1, §2
# [8] = tested on: Pseudomonas aeruginosa NCTC 10490
# Protocol: as §1, §2
# [9] = IIDS23, read-out: Minimum Inhibitory Concentration, inoculum 1 × 10^8 cells/ml
# [10] = inoculum 1 × 10^8 cells/ml, read-out: Minimum Inhibitory Concentration
# [11] = read-out: Minimum Inhibitory Concentration, inoculum 1 × 10^8 cells/ml
# [12] = NCTC10490, read-out: Minimum Inhibitory Concentration, inoculum 1 × 10^8 cells/ml
# [13] = IIDS23, inoculum 1 × 10^8 cells/ml, read-out: Minimum Inhibitory Concentration
# [14] = NIH96, inoculum 1 × 10^8 cells/ml, read-out: Minimum Inhibitory Concentration
# [15] = E2, inoculum 1 × 10^8 cells/ml, read-out: Minimum Inhibitory Concentration
# [16] = FDA209, inoculum 1 × 10^8 cells/ml, read-out: Minimum Inhibitory Concentration
# [17] = ATCC10145, inoculum 1 × 10^8 cells/ml, read-out: Minimum Inhibitory Concentration
# [18] = NCTC10490, inoculum 1 × 10^8 cells/ml, read-out: Minimum Inhibitory Concentration
# [19] = IIDS23, inoculum 1 × 10^6 cells/ml, read-out: Minimum Inhibitory Concentration
# [20] = read-out: Minimum Inhibitory Concentration, inoculum 1 × 10^6 cells/ml
# [21] = inoculum 1 × 10^6 cells/ml, read-out: Minimum Inhibitory Concentration
# [22] = NIH96, inoculum 1 × 10^6 cells/ml, read-out: Minimum Inhibitory Concentration
# [23] = E2, inoculum 1 × 10^6 cells/ml, read-out: Minimum Inhibitory Concentration
# [24] = FDA209, inoculum 1 × 10^6 cells/ml, read-out: Minimum Inhibitory Concentration
# [25] = ATCC10145, inoculum 1 × 10^6 cells/ml, read-out: Minimum Inhibitory Concentration
# [26] = NCTC10490, inoculum 1 × 10^6 cells/ml, read-out: Minimum Inhibitory Concentration
Structure (SMILES),MIC (Shigella Sonnei EW 33; inoculum 1 × 10^8 cells/ml),"MIC [1, 13]","MIC [2, 11]","MIC [3, 10]",MIC (Proteus rettgeri NIH 96; [14]),MIC ([4]; inoculum 1 × 10^8 cells/ml),"MIC [5, 15]","MIC [6, 16]",MIC (Klebsiella pneumoniae; [10]),"MIC [7, 17]","MIC [8, 18]",also measured
"CC1CCc2c(N3CCNCC3)c(F)cc3c(=O)c(C(=O)O)cn1c23 (stereo not drawn) [Compound X, 8-(1-Piperazinyl)-9-fluoro-5-methyl-6,7-dihydro-1-oxo-1H,5H--benzo[ij]quinolizine-2-carboxylic acid hydrobromide]",0.2 µg/mL,,,,,,,,,,,"MIC [1, 9]: 3.1 µg/mL; MIC [2, 10]: 0.1 µg/mL; MIC [3, 11]: 0.8 µg/mL; MIC (Proteus rettgeri NIH 96; NIH96, read-out: Minimum Inhibitory Concentration, inoculum 1 × 10^8 cells/ml): 0.1 µg/mL; MIC [4]: 0.4 µg/mL; MIC ([5]; E2, read-out: Minimum Inhibitory Concentration, inoculum 1 × 10^8 cells/ml): 1.6 µg/mL; MIC ([6]; FDA209, read-out: Minimum Inhibitory Concentration, inoculum 1 × 10^8 cells/ml): 0.8 µg/mL; MIC (Klebsiella pneumoniae; [11]): 0.4 µg/mL; MIC ([7]; ATCC10145, read-out: Minimum Inhibitory Concentration, inoculum 1 × 10^8 cells/ml): 1.6 µg/mL; MIC [8, 12]: 1.6 µg/mL"
C=CCN1CCN(c2c(Cl)cc3c(=O)c(C(=O)O)cn4c3c2CCC4C)CC1 (stereo not drawn) [h],1.56 µg/mL,3.13 µg/mL,0.78 µg/mL,0.78 µg/mL,0.2 µg/mL,0.78 µg/mL,12.5 µg/mL,0.78 µg/mL,0.78 µg/mL,12.5 µg/mL,12.5 µg/mL,
"CC1Cc2c(N3CCN(C)CC3)c(Cl)cc3c(=O)c(C(=O)O)cn1c23 (stereo not drawn) [Compound Z, 8-Chloro-9-(4-methyl-1-piperazinyl)-2-methyl-6-oxo-1,2-dihydro-6H--pyrrolo[3,2,1-ij]-quinoline-5-carboxylic acid]",0.2 µg/mL,12.5 µg/mL,0.1 µg/mL,0.4 µg/mL,0.4 µg/mL,0.2 µg/mL,6.3 µg/mL,0.8 µg/mL,0.2 µg/mL,3.1 µg/mL,3.1 µg/mL,"MIC [1, 19]: 6.3 µg/mL; MIC [2, 20]: 0.1 µg/mL; MIC (Shigella Sonnei EW 33; inoculum 1 × 10^6 cells/ml): 0.2 µg/mL; MIC [3, 21]: 0.4 µg/mL; MIC (Proteus rettgeri NIH 96; [22]): 0.2 µg/mL; MIC ([4]; inoculum 1 × 10^6 cells/ml): 0.2 µg/mL; MIC [5, 23]: 3.1 µg/mL; MIC [6, 24]: 0.4 µg/mL; MIC (Klebsiella pneumoniae; [21]): 0.2 µg/mL; MIC [7, 25]: 3.1 µg/mL; MIC [8, 26]: 3.1 µg/mL"
C#CCN1CCN(c2c(Cl)cc3c(=O)c(C(=O)O)cn4c3c2CCC4C)CC1 (stereo not drawn) [i],1.56 µg/mL,,0.78 µg/mL,0.78 µg/mL,0.2 µg/mL,,25 µg/mL,0.39 µg/mL,0.78 µg/mL,12.5 µg/mL,12.5 µg/mL,"MIC [1, 9]: 1.56 µg/mL; MIC [4]: 1.56 µg/mL"
CC1CCc2c(N3CCN(CCO)CC3)c(F)cc3c(=O)c(C(=O)O)cn1c23 (stereo not drawn) [f],0.78 µg/mL,3.13 µg/mL,0.39 µg/mL,0.39 µg/mL,0.2 µg/mL,0.39 µg/mL,12.5 µg/mL,0.78 µg/mL,0.78 µg/mL,6.25 µg/mL,12.5 µg/mL,
CC1CCc2c(N3CCN(C(=O)C(F)(F)F)CC3)c(Cl)cc3c(=O)c(C(=O)O)cn1c23 (stereo not drawn) [b],1.56 µg/mL,6.25 µg/mL,0.39 µg/mL,,0.2 µg/mL,0.39 µg/mL,3.13 µg/mL,3.13 µg/mL,0.39 µg/mL,3.13 µg/mL,,"MIC [3, 11]: 1.56 µg/mL; MIC [8, 12]: 1.56 µg/mL"
"CC1CCc2c(N3CCN(C)CC3)c(Cl)cc3c(=O)c(C(=O)O)cn1c23 (stereo not drawn) [Compound U, 8-(4-Methyl-1-piperazinyl)-9-chloro-5-methyl-6,7-dihydro-1-oxo-1H,5H--benzo[ij]-quinolizine-2-carboxylic acid]",0.2 µg/mL,3.1 µg/mL,≤ 0.05 µg/mL,0.4 µg/mL,0.4 µg/mL,0.2 µg/mL,6.3 µg/mL,0.8 µg/mL,0.2 µg/mL,3.1 µg/mL,1.6 µg/mL,"MIC [1, 19]: 3.1 µg/mL; MIC [2, 20]: ≤ 0.05 µg/mL; MIC (Shigella Sonnei EW 33; inoculum 1 × 10^6 cells/ml): 0.1 µg/mL; MIC [3, 21]: 0.4 µg/mL; MIC (Proteus rettgeri NIH 96; [22]): 0.4 µg/mL; MIC ([4]; inoculum 1 × 10^6 cells/ml): 0.2 µg/mL; MIC [5, 23]: 6.3 µg/mL; MIC [6, 24]: 0.4 µg/mL; MIC (Klebsiella pneumoniae; [21]): 0.2 µg/mL; MIC [7, 25]: 3.1 µg/mL; MIC [8, 26]: 1.6 µg/mL"
